In PubChem BioAssay (NCI):
Values joined by “and” are separate entries in the source; they are usually repeats but may differ in a detail not shown here. Equal values may be shown once.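 Test compounds were applied to cells in 96-well plates for 48 hours at 5 doses. At the GI50, growth is halved. At the TGI there is no net growth.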

Key:
Test in all cases: inhibition of tumour cell growth, NCI panel, 48 h
COLO 205 colon = tested on: COLO 205 colon
HOP-92 NSCLC = tested on: HOP-92 NSCLC
MDA-MB-435 = tested on: MDA-MB-435
NCI-H226 lung = tested on: NCI-H226 lung
NCI-H23 lung = tested on: NCI-H23 lung
NCI-H460 lung = tested on: NCI-H460 lung
OVCAR-3 ovarian = tested on: OVCAR-3 ovarian
RPMI-8226 leukemia = tested on: RPMI-8226 leukemia
RXF 393 renal = tested on: RXF 393 renal
IGROV1 ovarian = tested on: IGROV1 ovarian

| Structure (SMILES) | GI50 (COLO 205 colon) | TGI (COLO 205 colon) | GI50 (HOP-92 NSCLC) | TGI (HOP-92 NSCLC) [µM] | GI50 (MDA-MB-435) | TGI (MDA-MB-435) [µM] | GI50 (NCI-H226 lung) | TGI (NCI-H226 lung) [µM] | GI50 (NCI-H23 lung) | TGI (NCI-H23 lung) [µM] | GI50 (NCI-H460 lung) | TGI (NCI-H460 lung) [µM] | GI50 (OVCAR-3 ovarian) | TGI (OVCAR-3 ovarian) [µM] | GI50 (RPMI-8226 leukemia) [µM] | TGI (RPMI-8226 leukemia) [µM] | GI50 (RXF 393 renal) [nM] | TGI (RXF 393 renal) | GI50 (IGROV1 ovarian) | TGI (IGROV1 ovarian) [µM] |
| --- | --- | --- | --- | --- | --- | --- | --- | --- | --- | --- | --- | --- | --- | --- | --- | --- | --- | --- | --- | --- |
| COc1ccc2c3c(c4ccccc4cc13)C(=O)N(CCN(C)CCN)C2=O | 0.0843 µM | 1.27 µM | 0.114 µM | 0.896 | 0.343 µM | 1.71 | 0.145 µM | 0.383 | 0.0902 µM | 1.28 | 12.9 nM | 0.323 | 0.257 µM | 1.19 | 0.166 | 0.75 | 259 | 1.29 µM | – | – |
| O=C1NC(=O)C(c2ccc(Cl)cc2)=C1Nc1ccc(Cl)c(C(=O)O)c1 | > 25 µM | > 25 µM | > 25 µM | > 25 | > 25 µM | > 25 | > 25 µM | > 25 | > 25 µM | > 25 | > 25000 nM | > 25 | > 25 µM | > 25 | > 25 | > 25 | > 25000 | > 25 µM | > 25 µM | > 25 |
| O=C(Nc1ccc2[nH]c(C(=O)N3CC(CCl)c4c3cc([N+](=O)[O-])c3ccccc43)cc2c1)c1cc2ccccc2o1 (stereo not given) | > 1100 µM | > 1100 µM | > 1100 µM | > 1100 | > 1100 µM | > 1100 | > 1100 µM | > 1100 | > 1100 µM | > 1100 | 21000 nM | > 1100 | > 1100 µM | > 1100 | > 1100 | > 1100 | – | > 1100 µM | > 1100 µM | > 1100 |
| O=C(NCCCCCCNC(=O)n1cc(F)c(=O)[nH]c1=O)NCCCOCCOCCOCCOCCOCCOCCOCCOCCOCCOCCOCCOCCOCCOCCOCCOCCOCCOCCOCCOCCOCCCNC(=O)C(O)C(O)C(OC1OC(CO)C(O)C(O)C1O)C(O)CO (stereo not given) | – | > 100 µM | – | > 100 | – | > 100 | – | > 100 | – | > 100 | – | > 100 | – | > 100 | – | > 100 | – | > 100 µM | – | > 100 |
| C[n+]1c2ccccc2c(Nc2ccc(NS(=O)(=O)CCCCN=C(N)N)cc2)c2ccc(N)cc21 | 1.67 µM | > 100 µM | 1.92 µM | 52.9 | 20.4 µM | > 100 | 0.128 µM | 31.2 | 0.152 µM | 90.4 | – | 12.1 | 10.2 µM | > 80.2 | 1.43 | 23.3 | 15700 | > 70.8 µM | 2.92 µM | > 100 |
| c1ccc(Nn2c(CCCCCCCCc3nnc(COc4ccccc4)n3Nc3ccccc3)nnc2COc2ccccc2)cc1 | 3.18 µM and 19.6 µM | 8.81 µM and 77.1 µM | 30.7 µM and 41.9 µM | 267 | 5.34 µM and 11.9 µM | > 300 | 15.6 µM and 70.9 µM | > 300 | 37.2 µM and 76.8 µM | > 300 | 6340 nM and 12900 nM | > 300 | 16.5 µM and 41.2 µM | > 300 | – | > 300 | 157000 | 98 µM and > 300 µM | 17.7 µM and 46 µM | > 300 |
| CN[C@@H]1C[C@H]2O[C@@](C)([C@@H]1OC)n1c3ccccc3c3c4c(c5c6ccccc6n2c5c31)C(=O)N[C@H]4O | 0.0311 µM | 0.267 µM | 0.00753 µM | 0.0613 | 0.0613 µM | 2.56 | 0.0269 µM | > 4.01 | 0.0285 µM | 0.847 | 47.1 nM | 1.23 | 0.101 µM | 1.99 | 0.186 | 1.49 | – | 0.0534 µM | 0.0188 µM | 0.102 |
| COc1cc2c(cc1OC)-c1ccc3cc4c(cc3c1N(CCN(C)C)C2)OCO4 | 0.37 µM | 1.92 µM | 0.859 µM | 7.94 | – | 17.6 | 0.772 µM | 2.52 | 0.393 µM | 2.96 | 256 nM | 1.2 | 0.593 µM | 2.28 | 0.221 | 1.36 | 848 | 2.89 µM | 0.943 µM | 3.25 |
| CN1CCN(C(=O)c2c(NC(=O)NS(=O)(=O)c3ccccc3)sc3c2CCCCC3)CC1 | – | – | 27.1 µM | > 100 | 26.2 µM | 67.8 | 33.1 µM | > 100 | 24.3 µM | 52.1 | 51000 nM | > 100 | 39.6 µM | > 100 | 21.8 | 64.8 | 34000 | > 100 µM | > 100 µM | > 100 |
| COc1ccc2c(c1)c1nc3cc(C)c(C)cc3nc1n2CCN(C)C | 0.42 µM | 1.88 µM | 0.308 µM | 2.12 | 1.09 µM | 2.51 | 1.01 µM | 2.97 | 1.02 µM | 2.88 | 369 nM | 1.39 | 1.13 µM | 2.55 | 0.453 | 2.35 | 1220 | 2.88 µM | 0.464 µM | 1.97 |
| Cc1cc([N+](=O)[O-])ccc1NS(=O)(=O)c1cc(Cl)ccc1Cl | 3.23 µM | 12.3 µM | 0.666 µM | 3.81 | 2.77 µM | 36.6 | 2.87 µM | 14.3 | 3 µM | 9.99 | 2970 nM | > 43.6 | 3.24 µM | > 46.6 | 1.9 | 6.88 | 2980 | 18.5 µM | 4.61 µM | > 100 |
| O=C(/C=C/c1cccc([N+](=O)[O-])c1)c1ccc(O)c(CN2CCN(c3cc4c(cc3F)c(=O)c(C(=O)O)cn4C3CC3)CC2)c1 | – | – | 2.17 µM | 9.97 | 1.67 µM | 3.21 | 3.49 µM | 15.2 | 1.81 µM | 3.83 | 3430 nM | 19.3 | 1.77 µM | 3.41 | 0.418 | 2.82 | 1510 | 2.99 µM | – | – |
| CCN(CC)CCCC(C)Nc1c2ccc(Cl)cc2nc2cc(OC)c(OC)cc12 (stereo not given) | – | – | 2.33 µM | 8.34 | 1.65 µM | 3.08 | 1.47 µM | 5.39 | 1.48 µM | 3.25 | 1300 nM | 4.05 | 1.98 µM | 7.63 | 2.47 | 6.66 | 1300 | 2.67 µM | 2.15 µM | 9.96 |
